What was measured:
Settings in all cases: 72 h
Calu-3 [1] = test: drug sensitivity score (DSS) for viability; higher = more toxic; extreme values may be limits of the assay
Caco-2 [2] = test: as above
HepG2 [3] = test: as above
U2OS [4] = test: as above
Vero E6 [5] = test: as above
Calu-3 [6] = test: cell viability relative to DMSO; higher = less toxic
Caco-2 [7] = test: as above
HepG2 [8] = test: as above
U2OS [9] = test: as above
Vero E6 [10] = test: as above
Calu-3 [11] = test: relative viability EC50 (midpoint between 100% and the lowest measured viability); higher = less toxic
Caco-2 [12] = test: as above
HepG2 [13] = test: as above
U2OS [14] = test: as above
Vero E6 [15] = test: as above

Structure (SMILES)	drug sensitivity score (Calu-3 [1])	drug sensitivity score (Caco-2 [2])	drug sensitivity score (HepG2 [3])	drug sensitivity score (U2OS [4])	drug sensitivity score (Vero E6 [5])	cell viability (Calu-3 [6]; 1 nM)	cell viability (Calu-3 [6]; 10 nM)	cell viability (Calu-3 [6]; 100 nM)	cell viability (Calu-3 [6]; 1000 nM)	cell viability (Calu-3 [6]; 10000 nM)	cell viability (Caco-2 [7]; 1 nM)	cell viability (Caco-2 [7]; 10 nM)	cell viability (Caco-2 [7]; 100 nM)	cell viability (Caco-2 [7]; 1000 nM)	cell viability (Caco-2 [7]; 10000 nM)	cell viability (HepG2 [8]; 1 nM)	cell viability (HepG2 [8]; 10 nM)	cell viability (HepG2 [8]; 100 nM)	cell viability (HepG2 [8]; 1000 nM)	cell viability (HepG2 [8]; 10000 nM)	cell viability (U2OS [9]; 1 nM)	cell viability (U2OS [9]; 10 nM)	cell viability (U2OS [9]; 100 nM)	cell viability (U2OS [9]; 1000 nM)	cell viability (U2OS [9]; 10000 nM)	cell viability (Vero E6 [10]; 1 nM)	cell viability (Vero E6 [10]; 10 nM)	cell viability (Vero E6 [10]; 100 nM)	cell viability (Vero E6 [10]; 1000 nM)	cell viability (Vero E6 [10]; 10000 nM)	relative viability EC50 (Calu-3 [11])	relative viability EC50 (Caco-2 [12])	relative viability EC50 (HepG2 [13])	relative viability EC50 (U2OS [14])	relative viability EC50 (Vero E6 [15])
CC1(C)N=C(N)N=C(N)N1OCCCOc1cc(Cl)c(Cl)cc1Cl	0	0	0	0	0	100%	96.1%	93.8%	93.7%	100%	99.7%	91.5%	95.5%	102%	99.6%	104%	93.8%	93.9%	99.5%	98.7%	99.3%	93.9%	99.1%	95.7%	95%	94.7%	96.8%	95.3%	98%	108%	> 10 µM	> 10 µM	> 10 µM	> 10 µM	> 10 µM
CCCCOc1ccc(C(=O)Nc2ccc(F)cc2F)cc1	0	0	0	0	0	107%	97.1%	109%	99.2%	95.5%	105%	106%	104%	92.6%	96.5%	100%	98.2%	101%	90.7%	97.6%	98.1%	98.2%	101%	96.6%	99.5%	99.2%	102%	98.4%	99.7%	101%	> 10 µM	> 10 µM	> 10 µM	> 10 µM	> 10 µM
CCn1c(N)c(C(=O)NC)c(=O)c2ccc(C#C[C@@](C)(O)COC)nc21	0	0	0	0	0	89.4%	100%	103%	98.3%	109%	105%	92.8%	104%	94.2%	92.5%	92.6%	102%	93.2%	105%	104%	102%	96.9%	98.3%	97.8%	97.4%	94.1%	98.6%	94.8%	99.1%	104%	> 10 µM	> 10 µM	> 10 µM	> 10 µM	> 10 µM
CO[C@@H](C)Cn1c(=O)n(C)c2cnc3ccc(-c4cncc(C(C)(C)O)c4)cc3c21	17.4	14	9.8	15.7	10.2	108%	89.8%	68%	26.9%	18%	97.2%	93.4%	82.4%	35.6%	25.9%	94.4%	99.7%	95.8%	56.9%	14.8%	108%	102%	84%	25.7%	8.3%	96.4%	101%	87.2%	54.3%	28.9%	0.144 µM	0.238 µM	0.974 µM	0.331 µM	0.514 µM
COc1cc(N2CCC(N(C)C)CC2)ccc1Nc1ncc(Cl)c(Nc2ccccc2P(C)(C)=O)n1	10.9	5.6	9.2	8.2	4.1	97.9%	97.2%	93.8%	51.7%	5.6%	93.9%	95.2%	94.8%	79.4%	41.9%	105%	107%	92.9%	61.3%	14.4%	98.2%	100%	102%	83.4%	0.5%	101%	105%	103%	100%	25.6%	0.943 µM	1.37 µM	1.11 µM	1.9 µM	3.17 µM
Cc1cc(NC(=O)Nc2ccc(N(C)C)cc2)c2cc(F)cc(F)c2n1	0	0.1	0.8	0	0	95.2%	98.8%	101%	105%	94.7%	100%	103%	99.8%	89.5%	91.6%	103%	93.7%	96.4%	93.1%	80.1%	98.4%	104%	99.8%	103%	91.9%	101%	95.8%	100%	97.9%	100%	> 10 µM	> 10 µM	> 10 µM	> 10 µM	> 10 µM
O=C1NC(=O)C(c2ccccc2[N+](=O)[O-])=C1Nc1ccc(O)c(Cl)c1	0	0	0	0	0	91.4%	91.9%	94.4%	85.9%	88.9%	98.1%	94.3%	104%	95.7%	107%	102%	97.1%	95.5%	104%	100%	93.5%	94.9%	101%	103%	104%	101%	103%	98.8%	105%	105%	> 10 µM	> 10 µM	> 10 µM	> 10 µM	> 10 µM
O=S(=O)(c1ccccc1)c1cnc2c(N3CCNCC3)cccc2c1	0	0	0	0	0	90.2%	96.5%	104%	96.7%	98.4%	95.9%	101%	102%	94.8%	101%	93.8%	105%	97.1%	108%	87.2%	102%	96.8%	102%	99%	97%	93.3%	97.4%	95%	97.3%	106%	> 10 µM	> 10 µM	> 10 µM	> 10 µM	> 10 µM
OC(CN1CCN(c2cccc(Cl)c2)CC1)C(c1ccccc1)c1ccccc1 (stereo not given)	0	0	0	0	0	102%	110%	98.6%	99.9%	104%	93.3%	101%	101%	94.4%	105%	103%	102%	92.4%	108%	102%	95.2%	97.9%	98.2%	95.8%	92.8%	95.5%	96.9%	88.9%	99.7%	104%	> 10 µM	> 10 µM	> 10 µM	> 10 µM	> 10 µM
c1ccc2c(c1)CCCc1cc(NCCN3CCOCC3)nnc1-2	0	0	0	0	0	99.7%	105%	96.1%	113%	94.9%	97.7%	99.2%	96.1%	105%	87.7%	101%	101%	94.4%	87.7%	101%	97.1%	99.7%	92.9%	98.1%	96.6%	104%	98.9%	108%	104%	99%	> 10 µM	> 10 µM	> 10 µM	> 10 µM	> 10 µM
CC(C)(C)c1cc(C(C)(C)C)c2c(c1)C(O)(C(F)(F)F)C(=O)O2 (racemic) [rac-BHFF]	0	0	0	0	0	95.9%	93.4%	94.8%	93.2%	106%	94.3%	91.8%	87.4%	93%	94.6%	92.4%	105%	98.2%	104%	91.8%	100%	96.8%	103%	99.1%	108%	99%	103%	99.3%	103%	99%	> 10 µM	> 10 µM	> 10 µM	> 10 µM	> 10 µM
CC(=O)SC[C@@H](Cc1ccccc1)C(=O)NCC(=O)OCc1ccccc1 (racemic) [racecadotril]	0	0	0.6	0	0	92.8%	96.7%	95.5%	105%	108%	94.4%	95.7%	99.7%	92.6%	122%	105%	101%	88.8%	89.7%	102%	101%	96.8%	97.4%	98.9%	102%	105%	99.3%	94.1%	101%	109%	> 10 µM	> 10 µM	> 10 µM	> 10 µM	> 10 µM
O[C@@H]1CCCC[C@H]1N1CCC(c2ccccc2)CC1 (racemic) [vesamicol]	0	0	0	0	0	101%	106%	113%	105%	97.2%	95.3%	83.6%	99.5%	92.9%	95.2%	85.7%	111%	102%	97.1%	98%	95.2%	96.5%	102%	101%	101%	94%	95.6%	93.3%	101%	102%	> 10 µM	> 10 µM	> 10 µM	> 10 µM	> 10 µM
c1ccc2c(Cc3c[nH]c4ccccc34)c[nH]c2c1 [3,3'-diindolylmethane]	0	0	1.1	0	0.1	104%	98.5%	97.2%	104%	98.6%	108%	117%	91.3%	117%	102%	93.6%	101%	97%	86.8%	91.7%	100%	102%	101%	104%	94.3%	99%	102%	100%	93.4%	89.3%	> 10 µM	> 10 µM	> 10 µM	> 10 µM	> 10 µM
